Values of other authors in patent publication US12233067B2, “Topical treatment of vitiligo by a JAK inhibitor” (Incyte Corporation, priority 2019, dated 2025).

What was measured:
[1] = test system: patient with both alopecia areata and vitiligo; conditions: oral 20 mg BID for 20 weeks
[2] = test system: patient with widespread and progressive vitiligo; conditions: oral 5 mg QD; after 5 months of treatment

SMILES: N#CC[C@H](C1CCCC1)n1cc(-c2ncnc3[nH]ccc23)cn1 [ruxolitinib, (R)-3-(4-(7H-pyrrolo[2,3-d]pyrimidin-4-yl)-1H-pyrazol-1-yl)-3-cyclopentylpropanenitrile]
- clinical outcome [1]: hair regrowth as well as repigmentation of areas affected with vitiligo

SMILES: C[C@@H]1CCN(C(=O)CC#N)C[C@@H]1N(C)c1ncnc2[nH]ccc12 [tofacitinib]
- clinical outcome [2]: near complete repigmentation
